Experimental data from US12622934B2, “Pharmaceutical composition for preventing or treating atopic disease containing Faecalibacterium prausnitzii strain” (ENTEROBIOME INC., priority 2020, dated 2026).
In brackets after ≈: the same amount, converted by molar mass.

Assays:
[1] = tested on: Faecalibacterium prausnitzii A2-165; assay: MIC by CLSI broth microdilution, type strain; format: cell-based; set-up: MIC: unit not given beside the values; settings: for MIC breakpoint class: test strain A2-165, breakpoints per antibiotic in c1-c3
[2] = tested on: Faecalibacterium prausnitzii EB-FPDK11; assay: MIC by CLSI broth microdilution, isolated strain; format: cell-based; set-up: MIC: unit not given beside the values; settings: for resistance or sensitivity of the EB-FPDK11 strain to the antibiotic: Table 5; for MIC breakpoint class: test strain EB-FPDK11, breakpoints per antibiotic in c1-c3
[3] = tested on: Bacteroides thetiotaomicron ATCC 29741; assay: MIC by CLSI broth microdilution, QC strain; format: cell-based; settings: ATCC29741
IL-6 = assay: Serum cytokine concentration (ELISA), IL-6; format: in vivo, mice; settings: mouse blood, compared to atopic dermatitis-induced group (DNCB)
Procedure: (§1) The Faecalibacterium prausnitzii A2-165 strain and Faecalibacterium prausnitzii EB-FPDK11 live bacteria used in this experiment were prepared at a concentration of 1×10^8 CFU/150 μl PBS (25% glycerol, 0.05% cysteine/PBS).
(§2) To observe atopic dermatitis lesions, 6-week-old NC/Nga mice (weighed about 21 to 25 g, SLC, Inc., Japan) were purchased from Daehan Biolink Co., Ltd. (Chungbuk, Korea). Animal tests were carried out in accordance with the Animal use and Care Protocol of the Institutional Animal Care and Use Committee (IACUC). The animals were acclimated for one week, and then raised for 9 weeks at a constant temperature of 22° C. and a relative humidity of 50 to 60% with a 12-hr light/12-hr dark cycle.
(§3) The backs of 6-week-old NC/Nga mice were shaved clean, and then left to stand for 24 hours so that fine wounds of the skin were healed. […]
After induction of atopic dermatitis, the concentrations of cytokines related to Th1 and Th2 were measured to examine the immune response resulting from administration of the Faecalibacterium prausnitzii EB-FPDK11 strain of the present invention. […]
(§4) At the end of the experiment, the mice were anesthetized with CO2, and blood was collected by cardiac puncture. […] The concentrations of IL-4, IL-12, IFN-γ and IL-6 cytokines were measured using an ELISA kit (Invitrogen, CA, USA), and the results of the measurement are shown in FIGS. 16 and 17.

NC/Nga mice [4] = assay: Ear edema caused by atopic dermatitis (thickness gauge); format: in vivo; settings: at 6 weeks; normal group 0.55 mm, DNCB group 1.50 mm
Procedure: as §1, §2
(§5) The backs of 6-week-old NC/Nga mice were shaved clean, and then left to stand for 24 hours so that fine wounds of the skin were healed. 1% 2,4-dinitrochlorobenzene (DNCB) solution (Sigma-Aldrich Korea) was applied to the back of each mouse twice a week for 3 weeks to induce an immune response, and then 0.5% DNCB solution was applied twice a week to induce contact dermatitis. […]
After completion of the experiment, the mice were sacrificed by anesthetizing with CO2, and then the degree of edema of both ears was measured by the velocity transformation technique using a thickness gauge (Digimatic thickness gauge, 547-301, Mitutoyo, Japan).

NC/Nga mice [5] = assay: Spleen weight; format: in vivo; settings: after 6 weeks oral treatment, compared to atopic dermatitis-induced group (DNCB)
Procedure: as §1, §2, §3
Thus, the weight of the spleen was measured to observe the effect of the composition for preventing atopic dermatitis on the immune organs of NC/Nga mice with atopic dermatitis induced by DNCB. […] The collected spleen tissue was washed with physiological saline and then dried, and the weights thereof were measured using a microbalance and the sizes thereof were visually observed.

Th2/Th1 cytokines = assay: Ratio of Th2/Th1 cytokines in serum; format: in vivo, mice
Procedure: as §1
as §2, with “cycle. […]” for “cycle.”
as §4
From an immunological point of view, allergenic atopic dermatitis is a disease caused by an excessive imbalance between Th1 and Th2 immune responses. Thus, the cytokine concentrations measured as described above were expressed as the ratio of Th2/Th1 cytokines, and the results are shown in FIGS. 18 and 19.

NC/Nga mice [6] = assay: Scratching frequency; format: in vivo; settings: scratching for 10 minutes, day before end, compared to atopic dermatitis-induced group
Procedure: as §1, §2, §5
The day before the end of the experiment, the frequency of scratching the affected area due to itching was measured. For measurement of the frequency of scratching, each mouse was acclimated for 10 minutes, and then the frequency of scratching for 10 minutes was measured using a counter.

IgE = assay: Serum IgE concentration (ELISA); format: in vivo, mice; settings: end of experiment, compared to DNCB group (1545.08 ng/ml)
Procedure: as §1, §2, §5
At the end of the experiment, each of the mice was anesthetized with CO2 and blood was collected by cardiac puncture. The collected blood was centrifuged at 10,000 rpm for 5 minutes to separate the serum, and the serum IgE concentration was measured. […]

Compound | MIC breakpoint class [1] | resistance or sensitivity of the EB-FPDK11 strain to the antibiotic [2] | MIC breakpoint class [2] | also measured
Piperacillin-tazobactam [PTZ] | (R) | resistance | (R) | MIC ([1]; test strain A2-165, broth microdilution): ≤256/4; MIC ([2]; test strain EB-FPDK11, broth microdilution): ≤256/4
CO/N=C(\C(=O)N[C@@H]1C(=O)N2C(C(=O)O)=CCS[C@H]12)c1csc(N)n1 [CTZ, ceftizoxime] | (I) | resistance | (R) | 
COc1c(N2C[C@@H]3CCCN[C@@H]3C2)c(F)cc2c(=O)c(C(=O)O)cn(C3CC3)c12 [MXF, moxifloxacin] | (R) |  | (R) | 
C[C@@H](O)[C@H]1C(=O)N2C(C(=O)O)=C(S[C@@H]3CN[C@H](C(=O)N(C)C)C3)[C@H](C)[C@H]12 [MEM, meropenem] | (R) | resistance | (R) | MIC [3]: 0.5 µg/mL (≈ 1.3 µM)
C[C@@H]1C[C@H]2[C@@H]3CCC4=CC(=O)C=C[C@]4(C)[C@@]3(F)[C@@H](O)C[C@]2(C)[C@@]1(O)C(=O)CO [dexamethasone] |  |  |  | decrease in IL-6 concentration (IL-6): 35.5%; ear edema (NC/Nga mice [4]): 1.00 mm; decrease in spleen weight (NC/Nga mice [5]): 23.26%; decrease in IL-4/IL-12 ratio (Th2/Th1 cytokines; compared to atopic dermatitis-induced group): 23.7%; decrease in ratio of IL-6/IL-12 (Th2/Th1 cytokines; compared to atopic dermatitis-induced group (DNCB)): 35.8%; decrease in frequency of scratching (NC/Nga mice [6]): about 59.4%; decrease in serum IgE concentration (IgE): 40.70%
CCC[C@@H]1C[C@@H](C(=O)N[C@@H]([C@H]2O[C@H](SC)[C@H](O)[C@@H](O)[C@H]2O)[C@H](C)Cl)N(C)C1 [CLI, clindamycin] | (S) |  | (S) | 
O=C(N[C@H](CO)[C@H](O)c1ccc([N+](=O)[O-])cc1)C(Cl)Cl [CHL, chloramphenicol] | (R) | sensitivity | (S) | 
Cc1ncc([N+](=O)[O-])n1CCO [MTZ, metronidazole] | (S) | sensitivity | (S) | 
